Like-named read-outs stand apart in the source and are kept apart here.
Tests used:
[1] = system: Helianthus annuus (HELAN, sunflower); assay: greenhouse pre-emergence herbicidal activity; assay type: in vivo; details: read-out: observed % activity; for inhibition at 50 g/ha: 50 g ai/ha; for inhibition at 100 g/ha: 100 g ai/ha; for inhibition at 200 g/ha: 200 g ai/ha; for inhibition at 25 g/ha: 25 g ai/ha
Method: (§1) The containers were irrigated gently to promote germination and growth and subsequently covered with transparent plastic hoods until plant had rooted.
(§2) In the examples, the solvent used was water. […] In the examples, the solvent used was water.
(§3) Dicamba was used as a commercial aqueous solution having an active ingredient concentration of 480 g/l.
(§4) The test period extended over 21 days.
(§5) The evaluation for the damage caused by the chemical compositions was carried out using a scale from 0 to 100%, compared to the untreated control plants. Here, 0 means no damage and 100 means complete destruction of the plants.
(§6) The value E, which is to be expected if the activity of the individual compounds is just additive, was calculated using the method of S. R. Colby (1967) “Calculating synergistic and antagonistic responses of herbicide combinations”, Weeds 15, p. 22 ff. E=X+Y−(X·Y/100) where X=effect in percent using herbicide A at an application rate a; • Y=effect in percent using herbicide B at an application rate b; • E=expected effect (in %) of A+B at application rates a+b.
(§7) If the value observed in this manner is higher than the value E calculated according to Colby, a synergistic effect is present.

[2] = system: Matricaria inermis (MATIN, scentless mayweed); assay: greenhouse pre-emergence herbicidal activity; assay type: in vivo; details: read-out: observed % activity; for inhibition at 200 g/ha: 200 g ai/ha; for inhibition at 50 g/ha: 50 g ai/ha
Method: as §1, §2, §3, §4, §5, §6, §7

[3] = system: Abutilon theophrasti (ABUTH, velvetleaf); assay: greenhouse pre-emergence herbicidal activity; assay type: in vivo; details: read-out: observed % activity; for inhibition at 200 g/ha: 200 g ai/ha; for inhibition at 25 g/ha: 25 g ai/ha; for inhibition at 50 g/ha: 50 g ai/ha
Method: as §1, §2, §3, §4, §5, §6, §7

[4] = system: Xanthium strumarium (XANST, cocklebur); assay: greenhouse pre-emergence herbicidal activity; assay type: in vivo; details: read-out: observed % activity; for inhibition at 100 g/ha: 100 g ai/ha; for inhibition at 200 g/ha: 200 g ai/ha; for inhibition at 25 g/ha: 25 g ai/ha
Method: as §1, §2, §3, §4, §5, §6, §7

[5] = system: Ambrosia artemisifolia (AMBEL, common ragweed); assay: greenhouse pre-emergence herbicidal activity; assay type: in vivo; details: read-out: observed % activity; for inhibition at 200 g/ha: 200 g ai/ha; for inhibition at 50 g/ha: 50 g ai/ha
Method: as §1, §2, §3, §4, §5, §6, §7

[6] = system: Setaria faberii (SETFA, giant foxtail); assay: greenhouse post-emergence herbicidal activity; assay type: in vivo; details: Setaria faberi, read-out: observed % activity; for inhibition at 50 g/ha: 50 g ai/ha; for inhibition at 100 g/ha: 100 g ai/ha
Text: (§8) For the post-emergence treatment, the test plants were first grown to a height of 3 to 20 cm, depending on the plant habit, and only then treated. Here, the herbicidal compositions were suspended or emulsified in water as distribution medium and sprayed using finely distributing nozzles.
as §2, §3, §4, §5, §6, §7

[7] = system: Polygonum convolvulus (POLCO, wild buckwheat); assay: greenhouse post-emergence herbicidal activity; assay type: in vivo; details: 20 DAT
Text: as §8, §2, §3, §4, §5, §6, §7

[8] = system: Alopecurus myosuroides (ALOMY, blackgrass); assay: greenhouse post-emergence herbicidal activity; assay type: in vivo; details: read-out: observed % activity; for inhibition at 50 g/ha: 50 g ai/ha; for inhibition at 13 g/ha: 13 g ai/ha
Text: as §8, §2, §3, §4, §5, §6, §7

[9] = system: Setaria lutescens (SETLU, yellow foxtail); assay: greenhouse post-emergence herbicidal activity; assay type: in vivo; details: read-out: observed % activity; for inhibition at 50 g/ha: 50 g ai/ha; for inhibition at 13 g/ha: 13 g ai/ha
Text: as §8, §2, §3, §4, §5, §6, §7

[10] = system: Ipomoea purpurea (PHBPU, tall morningglory); assay: greenhouse post-emergence herbicidal activity; assay type: in vivo; details: 20 DAT
Text: as §8, §2, §3, §4, §5, §6, §7

[11] = system: Echinochloa crus-galli (ECHCG, barnyardgrass); assay: greenhouse post-emergence herbicidal activity; assay type: in vivo; details: read-out: observed % activity; for inhibition at 100 g/ha: 100 g ai/ha; for inhibition at 13 g/ha: 13 g ai/ha
Text: as §8, §2, §3, §4, §5, §6, §7

harmful plants = details: known from Y. Yamaji et al., 2006; cited from earlier work

COc1c(Cl)ccc(Cl)c1C(=O)O [dicamba]
inhibition at 50 g/ha ([1]; 192 h, 8 DAT): 30% | inhibition at 100 g/ha ([1]; 192 h, 8 DAT): 30% | inhibition at 200 g/ha ([1]; 192 h, 8 DAT): 75% | inhibition at 50 g/ha ([1]; 480 h, 20 DAT): 35% | inhibition at 100 g/ha ([1]; 480 h, 20 DAT): 50% | inhibition at 200 g/ha ([1]; 480 h, 20 DAT): 85% | inhibition at 200 g/ha ([2]; 192 h, 8 DAT): 50% | inhibition at 200 g/ha ([2]; 480 h, 20 DAT): 65% | inhibition at 200 g/ha ([3]; 192 h, 8 DAT): 40% | inhibition at 200 g/ha ([3]; 480 h, 20 DAT): 70% | inhibition at 100 g/ha ([4]; 192 h, 8 DAT): 50% | inhibition at 200 g/ha ([4]; 192 h, 8 DAT): 85% | inhibition at 100 g/ha ([4]; 480 h, 20 DAT): 80% | inhibition at 200 g/ha ([4]; 480 h, 20 DAT): 95% | inhibition at 200 g/ha ([5]; 192 h, 8 DAT): 65% | inhibition at 200 g/ha ([5]; 480 h, 20 DAT): 95% | inhibition at 50 g/ha ([6]; 168 h, 7 DAT): 25% | inhibition at 100 g/ha ([6]; 168 h, 7 DAT): 25% | inhibition at 50 g/ha ([6]; 480 h, 20 DAT): 0% | inhibition at 100 g/ha ([6]; 480 h, 20 DAT): 0% | observed activity in % destruction 20 days after treatment ([7]; 50 g ai/ha): 80% | inhibition at 50 g/ha ([8]; 168 h, 7 DAT): 10% | inhibition at 50 g/ha ([8]; 480 h, 20 DAT): 20% | inhibition at 50 g/ha ([9]; 168 h, 7 DAT): 40% | inhibition at 50 g/ha ([9]; 480 h, 20 DAT): 10% | observed activity in % destruction 20 days after treatment ([10]; 200 g ai/ha): 90% | inhibition at 100 g/ha ([11]; 168 h, 7 DAT): 20% | inhibition at 100 g/ha ([11]; 480 h, 20 DAT): 15%

Cn1nc(C(F)(F)F)c(CS(=O)(=O)C2=NOC(C)(C)C2)c1OC(F)F [pyroxasulfone, 3-[5-(difluoromethoxy)-1-methyl-3-(trifluoromethyl)pyrazol-4-ylmethylsulfonyl]-4,5-dihydro-5,5-dimethyl-1,2-oxazole]
post-emergence activity (harmful plants): only poor post-emergence activity | inhibition at 25 g/ha ([1]; 192 h, 8 DAT): 0% | inhibition at 50 g/ha ([1]; 192 h, 8 DAT): 0% | inhibition at 25 g/ha ([1]; 480 h, 20 DAT): 0% | inhibition at 50 g/ha ([1]; 480 h, 20 DAT): 0% | inhibition at 50 g/ha ([2]; 192 h, 8 DAT): 20% | inhibition at 50 g/ha ([2]; 480 h, 20 DAT): 85% | inhibition at 25 g/ha ([3]; 192 h, 8 DAT): 50% | inhibition at 50 g/ha ([3]; 192 h, 8 DAT): 50% | inhibition at 25 g/ha ([3]; 480 h, 20 DAT): 80% | inhibition at 50 g/ha ([3]; 480 h, 20 DAT): 98% | inhibition at 25 g/ha ([4]; 192 h, 8 DAT): 0% | inhibition at 25 g/ha ([4]; 480 h, 20 DAT): 0% | inhibition at 50 g/ha ([5]; 192 h, 8 DAT): 50% | inhibition at 50 g/ha ([5]; 480 h, 20 DAT): 80% | inhibition at 50 g/ha ([6]; 168 h, 7 DAT): 65% | inhibition at 50 g/ha ([6]; 480 h, 20 DAT): 90% | observed activity in % destruction 20 days after treatment ([7]; 100 g ai/ha): 55% | inhibition at 13 g/ha ([8]; 168 h, 7 DAT): 0% | inhibition at 13 g/ha ([8]; 480 h, 20 DAT): 15% | inhibition at 13 g/ha ([9]; 168 h, 7 DAT): 0% | inhibition at 13 g/ha ([9]; 480 h, 20 DAT): 65% | observed activity in % destruction 20 days after treatment ([10]; 13 g ai/ha): 30% | inhibition at 13 g/ha ([11]; 168 h, 7 DAT): 25% | inhibition at 13 g/ha ([11]; 480 h, 20 DAT): 80%

From US9253984B2, “Herbicidal compositions comprising pyroxasulfone VII” (BASF SE, priority 2008, dated 2016)
